In one series the test system is DC2.4 cells. The experiment in a line: MHC class I cross presentation of OVA257-264 in DC2.4 cells. The format is cell-based, murine. The conditions noted are these: 6 h incubation, 5 μM, 25-D1.16 antibody, flow cytometry, with or without SiO2—PO3H2. How it is done:
After an incubation time of 6 h, the test substances were removed by washing with phosphate-buffered saline (PBS). In the next step, the cells were incubated with CD16/CD32 antibody in order to block the non-specific binding of the detection antibody to the Fc (Fragment, crystallizable) receptor of the cells. After incubation with 25-D1.16 antibody, the amount of cross-presented OVA257-264 was quantified by flow cytometry. FIG. 16: […] Quantification was carried out by flow cytometry after labeling with 25-D1.16 detection antibody.
A general note: A flow cytometer gives signals particle by particle.

A short description of series [1]: Poly(I:C) loading capacity of SiO2-Arg nanoparticles (DLS, zeta potential). The format is physicochemical. The conditions noted are these: SiO2-Arg loaded with poly(I:C) LMW, 0.9% NaCl.
For the next series, the system named is influenza A virus PR8/34. Format: in vivo, C57BL/6 mice. To be noted: s.c. 24 hours before intranasal five-fold LD50 influenza A PR8/34.

Data on two substances can be found in patent US20230272014A1, “COMPOSITION OF NANOPARTICLES AS CARRIER FOR HPV-DERIVED IMMUNOGENIC FRAGMENTS” (priority 2020, published 2023).

On to “SIINFEKL (Ovalbumin aa 258-265; listed as Gallus gallus) [OVA257-264]”, for which the “OVA257-264 MHC class I presentation” value in the series on DC2.4 cells was “presented in significant amounts”.
In series [1], “polyinosinic:polycytidylic acid [poly(I:C)]” came in with a PDI of 0.557, a Peak of 12.69 nm and a Z ave of 33.83 nm. Moreover, the “improvement compared to the placebo group” value in the series on influenza A virus PR8/34 is listed as “does not show any statistically significant improvement”.
